# From US7202239B2, “Cyclohexylphenyl carboxamides tocolytic oxytocin receptor antagonists” (Wyeth, priority 2001, dated 2007)
# Tests used:
# human oxytocin receptor = molecular target: T1, human oxytocin receptor (Homo sapiens, UniProt P30559); experiment: Oxytocin binding in CHO cell membranes expressing human oxytocin receptors; conditions: [3H]oxytocin; for inhibition at 0.1 µM: 100 nM, read-out: OT % inhibition at 100 nM; for IC50: value in parentheses, read-out: OT (IC50)
# T1 sequence (P30559 1-389): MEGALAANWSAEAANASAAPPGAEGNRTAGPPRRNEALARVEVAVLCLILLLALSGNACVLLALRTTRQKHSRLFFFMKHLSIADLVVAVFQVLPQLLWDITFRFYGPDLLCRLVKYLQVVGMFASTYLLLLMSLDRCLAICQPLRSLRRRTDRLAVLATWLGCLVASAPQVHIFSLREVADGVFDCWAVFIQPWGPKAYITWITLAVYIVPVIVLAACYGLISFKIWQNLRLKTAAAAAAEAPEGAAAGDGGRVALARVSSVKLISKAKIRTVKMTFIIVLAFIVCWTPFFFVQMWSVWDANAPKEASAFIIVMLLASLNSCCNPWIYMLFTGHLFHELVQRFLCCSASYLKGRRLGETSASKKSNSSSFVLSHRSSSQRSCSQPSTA
# Source text: Oxytocin Binding in Chinese Hamster Ovary Cell Membranes Expressing Human Oxytocin Receptors
# Chinese Hamster Ovary (CHO) cells stably transfected with the human oxytocin receptor (cf. Tanizawa et al., U.S. Pat. No. 5,466,584 (1995) to Rohto Pharmaceutical Co. Ltd., Osaka, Japan) were obtained from M. Thibonnier, Case Western Reserve University School of Medicine, Cleveland, Ohio. A. Passaging and Amplification of Cells: CHO cells transfected with the human oxytocin receptors obtained from M. Thibonnier (pcDNA3.1 vector) are allowed to grow to confluency (approx. >90%) in T-150 flasks under sterile conditions, in a cell culture medium of F-12 Nutrient Mixture (HAM) with L-glutamine (Gibco Cat. # 11765-054) containing 15 mM HEPES (Gibco Cat. # 15630-080), 1% antibiotic/antimycotic (add 5 mL 100×, Gibco Cat. # 15240-062 per 500 mL F-12), 400 μg/mL of Geneticin (add 4 mL of 50 mg/mL per 500 mL F-12) and 10% Fetal Bovine Serum (Qualified, heat inactivated, Gibco Cat. # 16140-063). The medium is removed by aspiration and the cells are washed with 10 mL of Hank's Balanced Salt solution (Gibco Cat. # 14175-095). The salt solution is removed by aspiration and the cells trypsinized with 5 mL of trypsin-EDTA (0.05% trypsin, 0.53 mM EDTA-4Na, Gibco Cat. # 25300-070) for 1 min The trypsin is removed by aspiration and the cells dislodged by tapping. Cell Culture medium (e.g. 30 mL for 1:30 split) is immediately added and mixed well to inactivate trypsin. 1 mL of detached cells is added to new culture flasks containing fresh Cell Culture medium (e.g. into 25 mL per T-150 flask), and mixed gently. The cells are incubated at 37° C. in 5% CO2. The medium is changed at 3 to 4 days interval (or as appropriate). The cells grow to confluency (approx. >75%–95%) within 7–8 days. All steps are done under sterile conditions. B. Membrane Preparation: The cells are washed twice gently with Hank's Balanced Salt solution (eg, use 10 mL per T-150 flask). The excess solution is removed and the cells bathed for 15–30 min. in an enzyme-free Cell Dissociation Buffer (eg, use 8 mL Hank's Based, Gibco Cat. # 13150-016 per T-150 flask) until cells are loosened. The contents are transferred to centrifuge tubes (50 mL size) kept in ice bath. All subsequent steps are done at 4° C. The tubes are centrifuged at 300×g for 15 min (1380 rpm on SORVAL, Model RT6000D, using rotor for 50 mL tubes). The supernatant is discarded and the cells suspended in homogenizing buffer (10 mM Tris-HCl containing 0.25 M sucrose and 1 mM EDTA, pH 7.4) ensuring that the volume of the buffer is about ten times the volume of the cell pellet. The cells are pooled into a centrifuge tube (50 mL) and homogenized with a Polytron at setting 6 for 10 sec. The homogenate is transferred into a Potter-Elvjehm homogenizer and homogenized with 3 strokes. The homogenate is centrifuged at 1500×g for 10 min at 4° C. (3100 rpm using SORVAL, model RT6000D, using rotor for 50 mL tubes). The pellet is discarded. The supernatant is centrifuged at 100,000×g for 60 min. at 4° C. (Beckman L8-80M ultracentrifuge; spin at 37,500 rpm with rotor type 70 Ti for 50 mL tubes; 38,000 rpm with type 80Ti for 15 mL tubes; or 35,800 rpm with rotor type 45Ti). The supernantant is discarded and the pellet suspended in 3 to 4 mL of Tris buffer (50 mM TRIS-HCl, pH 7.4). The protein content is estimated by the Bradford or Lowry method. The volume of the membrane suspension is adjusted with the membrane buffer (50 mM Tris-HCl containing 0.1% BSA and 0.1 mM PMSF) to give 3.0 mg/mL (or as appropriate) of protein. The membranes are aliquoted and stored at −70° C. C. Radioligand Binding Assay: In wells of a 96-well format microtiter plate, is added 90, 110 or 130 μL (to make up a final volume of 200 μL) of assay buffer containing 50 mM of Tris-HCl (pH 7.4), […], 1 mg % aprotinin, 1 mg % leupeptin, 2 mg % 1,10-phenanthroline, 10 mg % trypsin inhibitor, and 0.1 mM PMSF. […]
SMILES,inhibition at 0.1 µM (human oxytocin receptor),melting point,IC50 (human oxytocin receptor)
"O=C(c1ccc(C2CCCCC2)cc1)N1Cc2ccc(C(=O)C(Cl)(Cl)Cl)n2Cc2ccccc21 [Example 7, 2,2,2-Trichloro-1-[10-(4-cyclohexyl-benzoyl)-10,11-dihydro-5H-pyrrolo[2,1-c][1,4]benzodiazepin-3-yl]-1-ethanone]",12%,172 to 174 °C,–
"CN1CCN(C(=O)c2ccc3n2Cc2ccccc2N(C(=O)c2ccc(C4CCCCC4)cc2)C3)CC1 [Example 24, [10-(4-Cyclohexyl-benzoyl)-10,11-dihydro-5H-pyrrolo[2,1-c][1,4]benzodiazepin-3-yl](4-methyl-1-piperazinyl)-methanone]",–,134 to 136 °C,0.0183 µM
"CC(C)(C)c1ccc(C(=O)c2ccc3n2Cc2ccccc2N(C(=O)c2ccc(C4CCCCC4)cc2)C3)cc1 [Example 5, [4-(tert-Butyl)phenyl][10-(4-cyclohexyl-benzoyl)-10,11-dihydro-5H-pyrrolo[2,1-c][1,4]benzodiazepin-3-yl]methanone]",46%,143 to 145 °C,–
"CN1CCN(C(=O)c2ccc3n2Cc2ccc(C(=O)O)cc2N(C(=O)c2ccc(C4CCCCC4)cc2)C3)CC1 [Example 3, 10-(4-Cyclohexyl-benzoyl)-3-[(4-methyl-1-piperazinyl)carbonyl]-10,11-dihydro-5H-pyrrolo[2,1-c][1,4]benzodiazepine-8-carboxylic acid]",-2%,195 to 210 °C,–
"CN1CCCN(C(=O)c2ccc3n2Cc2ccccc2N(C(=O)c2ccc(C4CCCCC4)cc2)C3)CC1 [Example 30, [10-(4-Cyclohexyl-benzoyl)-10,11-dihydro-5H-pyrrolo[2,1-c][1,4]benzodiazepin-3-yl](4-methyl-[1,4]-diazepan-1-yl)-methanone]",94%,133 to 136 °C,–
"CN(C)C=NNC(=O)c1ccc2n1Cc1ccccc1N(C(=O)c1ccc(C3CCCCC3)cc1)C2 [Example 10, N′-{[10-(4-Cyclohexyl-benzoyl)-10,11-dihydro-5H-pyrrolo[2,1-c][1.4]benzodiazepin-3-yl]carbonyl}-N,N-dimethylhydrazonoformamide]",–,167 to 190 °C,0.0757 µM
"CN(C)/C=C/C(=O)c1ccc2n1Cc1ccccc1N(C(=O)c1ccc(C3CCCCC3)cc1)C2 [Example 20, (E)-1-[10-(4-Cyclohexyl-benzoyl)-10,11-dihydro-5H-pyrrolo[2,1-c][1,4]benzodiazepin-3-yl]-3-(dimethylamino)-2-propen-1-one]",43%,237 to 240 °C,–
CN(C)/C=N/C(=O)c1ccc2n1Cc1ccccc1N(C(=O)c1ccc(C3CCCCC3)cc1)C2 [Example 17],–,216 to 218 °C,0.0514 µM
"Cc1ccccc1N1CCN(C(=O)c2ccc3n2Cc2ccccc2N(C(=O)c2ccc(C4CCCCC4)cc2)C3)CC1 [Example 27, [10-(4-Cyclohexyl-benzoyl)-10,11-dihydro-5H-pyrrolo[2,1-c][1,4]benzodiazepin-3-yl][4-(2-methylphenyl)-1-piperazinyl]-methanone]",44%,141 to 143 °C,–
"CN(C)NC(=O)c1ccc2n1Cc1ccccc1N(C(=O)c1ccc(C3CCCCC3)cc1)C2 [Example 19, 10-(4-Cyclohexyl-benzoyl)-N′-N′-dimethyl-10,11-dihydro-5H-pyrrolo[2,1-c][1,4]benzodiazepine-3-carbohydrazide]",–,182 to 183 °C,0.13 µM
"CC(=NNC(=O)c1ccc2n1Cc1ccccc1N(C(=O)c1ccc(C3CCCCC3)cc1)C2)N(C)C [Example 9, N′-{[10-(4-Cyclohexyl-benzoyl)-10,11-dihydro-5H-pyrrolo[2,1-c][1,4]benzodiazepin-3-yl]carbonyl}-N,N-dimethylethanehydrazonamide]",–,164 to 175 °C,0.0354 µM

# Further lines, results first:
inhibition at 0.1 µM (human oxytocin receptor),melting point,IC50 (human oxytocin receptor),SMILES
14%,203 °C (dec.),–,"COC(=O)c1ccc2c(c1)N(C(=O)c1ccc(C3CCCCC3)cc1)Cc1ccc(C(=O)N3CCN(C)CC3)n1C2.Cl [Example 1, Methyl 10-(4-cyclohexylbenzoyl)-3-[(4-methyl-1-piperazinyl)carbonyl]-10,11-dihydro-5H-pyrrolo[2,1-c][1,4]benzodiazepine-8-carboxylate hydrochloride salt]"
–,128 to 131 °C,0.00436 µM,C/C(=N\C(=O)c1ccc2n1Cc1ccccc1N(C(=O)c1ccc(C3CCCCC3)cc1)C2)N(C)C [Example 18]
–,122 to 123 °C,0.133 µM,"NC(=O)c1ccc2n1Cc1ccccc1N(C(=O)c1ccc(C3CCCCC3)cc1)C2 [Example 16, 10-(4-Cyclohexyl-benzoyl)-10,11-dihydro-5H-pyrrolo[2,1-c][1,4]benzodiazepin-3-carboxamide]"
85%,–,–,"CN1CCC(N(C)C(=O)c2ccc3n2Cc2ccccc2N(C(=O)c2ccc(C4CCCCC4)cc2)C3)CC1 [Example 39, 10-(4-Cyclohexyl-benzoyl)-N-methyl-N-(1-methyl-4-piperidinyl)-10,11-dihydro-5H-pyrrolo[2,1-c][1,4]benzodiazepine-3-carboxamide]"
57%,–,–,"CN1CCCC1CCNC(=O)c1ccc2n1Cc1ccccc1N(C(=O)c1ccc(C3CCCCC3)cc1)C2 (stereo not drawn) [Example 38, 10-(4-Cyclohexyl-benzoyl)-N-[2-(1-methyl-2-pyrrolidinyl)ethyl]-10,11-dihydro-5H-pyrrolo[2,1-c][1,4]benzodiazepine-3-carboxamide]"
